Data published in ChEMBL document CHEMBL4507276 (2021).

What was measured:
Settings in all cases: Compound concentration 1000.0 nM
[1] = biological target: T1, Mitogen-activated protein kinase kinase kinase 5 (Homo sapiens) (UniProt Q99683)
T1 sequence (whole entry): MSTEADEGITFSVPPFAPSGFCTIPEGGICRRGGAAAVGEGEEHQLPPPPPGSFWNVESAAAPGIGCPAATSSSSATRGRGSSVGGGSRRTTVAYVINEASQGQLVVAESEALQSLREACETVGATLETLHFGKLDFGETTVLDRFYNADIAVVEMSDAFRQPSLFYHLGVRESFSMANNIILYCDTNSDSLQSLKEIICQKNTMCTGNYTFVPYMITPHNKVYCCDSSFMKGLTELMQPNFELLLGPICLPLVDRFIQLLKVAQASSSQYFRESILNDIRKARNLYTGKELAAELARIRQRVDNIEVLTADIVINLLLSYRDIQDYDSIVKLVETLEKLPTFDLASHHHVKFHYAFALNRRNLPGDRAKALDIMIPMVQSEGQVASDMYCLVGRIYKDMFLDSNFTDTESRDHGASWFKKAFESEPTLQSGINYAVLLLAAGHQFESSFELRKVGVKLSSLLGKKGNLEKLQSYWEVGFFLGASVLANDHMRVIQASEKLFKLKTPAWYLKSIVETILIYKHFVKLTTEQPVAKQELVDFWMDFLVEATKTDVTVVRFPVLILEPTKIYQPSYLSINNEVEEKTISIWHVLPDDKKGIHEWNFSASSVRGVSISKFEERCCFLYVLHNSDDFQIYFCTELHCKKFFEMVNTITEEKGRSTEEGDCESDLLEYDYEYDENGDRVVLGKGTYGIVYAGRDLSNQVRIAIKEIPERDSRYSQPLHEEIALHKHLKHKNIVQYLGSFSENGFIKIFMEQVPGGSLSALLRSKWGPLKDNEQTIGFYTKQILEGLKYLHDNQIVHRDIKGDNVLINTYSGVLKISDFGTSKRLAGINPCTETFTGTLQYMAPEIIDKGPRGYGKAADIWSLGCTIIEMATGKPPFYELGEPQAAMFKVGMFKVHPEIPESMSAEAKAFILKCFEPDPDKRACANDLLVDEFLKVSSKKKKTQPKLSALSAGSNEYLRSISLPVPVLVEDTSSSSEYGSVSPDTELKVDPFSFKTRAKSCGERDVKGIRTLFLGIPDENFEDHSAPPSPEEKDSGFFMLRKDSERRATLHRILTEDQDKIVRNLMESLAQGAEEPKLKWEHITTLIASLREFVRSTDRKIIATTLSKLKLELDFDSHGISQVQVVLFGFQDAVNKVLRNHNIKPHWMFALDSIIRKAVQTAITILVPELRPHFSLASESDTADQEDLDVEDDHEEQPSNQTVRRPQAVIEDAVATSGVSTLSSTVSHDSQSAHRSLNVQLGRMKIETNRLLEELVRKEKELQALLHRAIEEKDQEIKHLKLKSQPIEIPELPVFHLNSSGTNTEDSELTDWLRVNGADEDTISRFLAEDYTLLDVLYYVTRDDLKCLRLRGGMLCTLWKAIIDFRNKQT

[2] = biological target: T2, Serine/threonine-protein kinase TAO2 (Homo sapiens) (UniProt Q9UL54)
T2 sequence (whole entry): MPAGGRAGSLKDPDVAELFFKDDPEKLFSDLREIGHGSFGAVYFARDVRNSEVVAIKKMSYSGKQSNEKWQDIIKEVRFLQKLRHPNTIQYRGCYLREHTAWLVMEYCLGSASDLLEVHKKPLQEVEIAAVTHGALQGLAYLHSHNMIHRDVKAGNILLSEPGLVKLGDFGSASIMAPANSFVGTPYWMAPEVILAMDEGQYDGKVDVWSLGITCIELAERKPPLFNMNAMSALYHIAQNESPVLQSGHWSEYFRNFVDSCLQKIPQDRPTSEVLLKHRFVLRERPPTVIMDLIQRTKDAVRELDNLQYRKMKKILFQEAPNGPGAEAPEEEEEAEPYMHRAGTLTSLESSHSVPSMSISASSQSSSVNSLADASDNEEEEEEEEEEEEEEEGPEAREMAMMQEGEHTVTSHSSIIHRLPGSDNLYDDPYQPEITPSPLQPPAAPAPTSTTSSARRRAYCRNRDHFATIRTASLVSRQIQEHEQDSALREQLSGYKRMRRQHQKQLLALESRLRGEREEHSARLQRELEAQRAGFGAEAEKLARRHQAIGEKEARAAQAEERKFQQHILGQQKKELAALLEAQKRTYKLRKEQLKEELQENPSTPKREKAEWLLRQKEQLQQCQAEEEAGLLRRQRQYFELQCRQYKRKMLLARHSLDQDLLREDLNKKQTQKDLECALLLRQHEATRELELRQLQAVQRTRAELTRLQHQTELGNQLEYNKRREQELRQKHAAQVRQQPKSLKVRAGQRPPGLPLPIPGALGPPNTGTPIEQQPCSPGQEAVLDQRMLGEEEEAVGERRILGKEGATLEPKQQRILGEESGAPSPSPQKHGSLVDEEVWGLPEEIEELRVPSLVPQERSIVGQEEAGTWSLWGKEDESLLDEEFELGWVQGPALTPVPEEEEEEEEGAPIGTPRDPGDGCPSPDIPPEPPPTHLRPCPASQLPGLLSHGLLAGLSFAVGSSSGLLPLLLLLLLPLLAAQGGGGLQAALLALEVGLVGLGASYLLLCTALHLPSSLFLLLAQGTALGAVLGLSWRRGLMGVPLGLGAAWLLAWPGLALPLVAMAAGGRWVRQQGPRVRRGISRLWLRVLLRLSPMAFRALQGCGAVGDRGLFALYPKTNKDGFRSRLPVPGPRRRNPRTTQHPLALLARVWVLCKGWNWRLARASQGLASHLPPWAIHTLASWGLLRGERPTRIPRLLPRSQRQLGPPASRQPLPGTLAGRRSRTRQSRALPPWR

[3] = biological target: Tyrosine-protein kinase SYK (Homo sapiens) (UniProt P43405)
[4] = biological target: Serine/threonine-protein kinase ULK3 (Homo sapiens) (UniProt Q6PHR2)
[5] = biological target: NUAK family SNF1-like kinase 2 (Homo sapiens) (UniProt Q9H093)
Chain of NUAK family SNF1-like kinase 2 (Homo sapiens) (Q9H093 whole entry): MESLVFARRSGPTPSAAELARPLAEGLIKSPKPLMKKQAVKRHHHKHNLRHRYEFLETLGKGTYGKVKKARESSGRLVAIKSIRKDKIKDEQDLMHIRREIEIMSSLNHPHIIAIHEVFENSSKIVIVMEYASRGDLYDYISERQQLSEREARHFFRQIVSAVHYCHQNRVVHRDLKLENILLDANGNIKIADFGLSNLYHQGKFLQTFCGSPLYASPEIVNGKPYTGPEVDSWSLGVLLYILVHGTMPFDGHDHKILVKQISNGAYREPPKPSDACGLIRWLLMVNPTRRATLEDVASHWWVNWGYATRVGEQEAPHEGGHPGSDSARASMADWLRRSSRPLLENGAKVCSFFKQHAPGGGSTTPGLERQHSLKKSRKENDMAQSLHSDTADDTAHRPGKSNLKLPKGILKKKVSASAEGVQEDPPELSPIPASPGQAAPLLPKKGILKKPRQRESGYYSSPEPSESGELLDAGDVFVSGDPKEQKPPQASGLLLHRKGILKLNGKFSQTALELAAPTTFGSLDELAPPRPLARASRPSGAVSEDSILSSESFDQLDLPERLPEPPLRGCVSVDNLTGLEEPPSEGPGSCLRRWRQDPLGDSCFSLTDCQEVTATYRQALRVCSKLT

[6] = biological target: SNF-related serine/threonine-protein kinase (Homo sapiens) (UniProt Q9NRH2)
Chain of SNF-related serine/threonine-protein kinase (Homo sapiens) (Q9NRH2 whole entry): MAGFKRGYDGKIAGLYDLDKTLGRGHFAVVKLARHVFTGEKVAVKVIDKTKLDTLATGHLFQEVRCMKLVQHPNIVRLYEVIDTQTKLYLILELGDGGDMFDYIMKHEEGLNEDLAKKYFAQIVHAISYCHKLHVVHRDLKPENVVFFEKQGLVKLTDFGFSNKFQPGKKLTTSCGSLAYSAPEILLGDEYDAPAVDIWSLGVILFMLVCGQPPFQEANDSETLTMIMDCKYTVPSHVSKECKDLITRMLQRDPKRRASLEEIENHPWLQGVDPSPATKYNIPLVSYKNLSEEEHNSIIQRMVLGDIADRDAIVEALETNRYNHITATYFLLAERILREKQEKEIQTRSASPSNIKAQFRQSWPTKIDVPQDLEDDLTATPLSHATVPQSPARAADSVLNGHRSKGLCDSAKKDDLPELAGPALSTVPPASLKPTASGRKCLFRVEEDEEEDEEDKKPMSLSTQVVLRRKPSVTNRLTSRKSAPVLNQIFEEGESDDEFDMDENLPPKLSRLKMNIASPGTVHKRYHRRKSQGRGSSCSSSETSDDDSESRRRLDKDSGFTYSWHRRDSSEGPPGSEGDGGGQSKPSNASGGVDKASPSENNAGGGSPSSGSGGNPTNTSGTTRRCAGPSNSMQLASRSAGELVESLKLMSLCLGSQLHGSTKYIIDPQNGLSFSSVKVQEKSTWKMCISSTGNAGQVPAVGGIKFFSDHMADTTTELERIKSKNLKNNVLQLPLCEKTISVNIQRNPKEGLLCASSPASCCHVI

[7] = biological target: Serine/threonine-protein kinase PAK 6 (Homo sapiens) (UniProt Q9NQU5)
Chain of Serine/threonine-protein kinase PAK 6 (Homo sapiens) (Q9NQU5 whole entry, looked up): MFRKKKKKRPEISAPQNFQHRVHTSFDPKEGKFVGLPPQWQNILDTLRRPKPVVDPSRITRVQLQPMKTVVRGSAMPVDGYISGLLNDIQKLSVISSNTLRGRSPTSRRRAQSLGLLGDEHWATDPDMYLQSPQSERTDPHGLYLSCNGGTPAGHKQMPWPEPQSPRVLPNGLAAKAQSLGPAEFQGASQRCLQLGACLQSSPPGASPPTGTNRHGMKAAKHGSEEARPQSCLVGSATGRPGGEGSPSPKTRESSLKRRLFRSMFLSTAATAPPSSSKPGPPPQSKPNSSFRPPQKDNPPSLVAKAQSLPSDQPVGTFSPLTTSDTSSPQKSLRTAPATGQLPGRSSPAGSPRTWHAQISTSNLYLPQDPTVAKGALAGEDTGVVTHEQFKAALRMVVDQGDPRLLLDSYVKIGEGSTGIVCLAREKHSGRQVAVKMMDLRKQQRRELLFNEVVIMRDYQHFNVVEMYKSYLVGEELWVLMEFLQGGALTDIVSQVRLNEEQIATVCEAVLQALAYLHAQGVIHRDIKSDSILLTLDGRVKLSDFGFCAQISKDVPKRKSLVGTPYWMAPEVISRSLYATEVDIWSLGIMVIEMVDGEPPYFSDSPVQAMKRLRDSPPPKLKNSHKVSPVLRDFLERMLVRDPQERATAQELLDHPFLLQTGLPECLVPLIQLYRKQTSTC

[8] = biological target: Wee1-like protein kinase 2 (Homo sapiens) (UniProt P0C1S8)
Chain of Wee1-like protein kinase 2 (Homo sapiens) (P0C1S8 whole entry, looked up): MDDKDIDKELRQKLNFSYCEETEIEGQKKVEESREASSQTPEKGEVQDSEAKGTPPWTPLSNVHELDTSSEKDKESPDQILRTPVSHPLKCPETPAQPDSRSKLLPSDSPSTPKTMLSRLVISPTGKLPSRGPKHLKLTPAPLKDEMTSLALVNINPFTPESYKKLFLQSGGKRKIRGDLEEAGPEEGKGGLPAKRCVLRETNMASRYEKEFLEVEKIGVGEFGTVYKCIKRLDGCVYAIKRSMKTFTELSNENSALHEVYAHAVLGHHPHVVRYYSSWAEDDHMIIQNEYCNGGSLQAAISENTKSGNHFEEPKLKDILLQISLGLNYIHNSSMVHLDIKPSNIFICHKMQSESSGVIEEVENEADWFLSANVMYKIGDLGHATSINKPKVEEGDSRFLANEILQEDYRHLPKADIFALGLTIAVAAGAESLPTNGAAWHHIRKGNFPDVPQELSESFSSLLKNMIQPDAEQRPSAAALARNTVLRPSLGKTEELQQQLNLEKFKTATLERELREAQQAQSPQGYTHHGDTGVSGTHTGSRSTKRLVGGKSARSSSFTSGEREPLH

[9] = test system: ALK tyrosine kinase receptor (Homo sapiens), Q9UM73 [L1196M]
Chain of ALK tyrosine kinase receptor (Homo sapiens), Q9UM73 [L1196M] (Q9UM73 whole entry L1196M, looked up): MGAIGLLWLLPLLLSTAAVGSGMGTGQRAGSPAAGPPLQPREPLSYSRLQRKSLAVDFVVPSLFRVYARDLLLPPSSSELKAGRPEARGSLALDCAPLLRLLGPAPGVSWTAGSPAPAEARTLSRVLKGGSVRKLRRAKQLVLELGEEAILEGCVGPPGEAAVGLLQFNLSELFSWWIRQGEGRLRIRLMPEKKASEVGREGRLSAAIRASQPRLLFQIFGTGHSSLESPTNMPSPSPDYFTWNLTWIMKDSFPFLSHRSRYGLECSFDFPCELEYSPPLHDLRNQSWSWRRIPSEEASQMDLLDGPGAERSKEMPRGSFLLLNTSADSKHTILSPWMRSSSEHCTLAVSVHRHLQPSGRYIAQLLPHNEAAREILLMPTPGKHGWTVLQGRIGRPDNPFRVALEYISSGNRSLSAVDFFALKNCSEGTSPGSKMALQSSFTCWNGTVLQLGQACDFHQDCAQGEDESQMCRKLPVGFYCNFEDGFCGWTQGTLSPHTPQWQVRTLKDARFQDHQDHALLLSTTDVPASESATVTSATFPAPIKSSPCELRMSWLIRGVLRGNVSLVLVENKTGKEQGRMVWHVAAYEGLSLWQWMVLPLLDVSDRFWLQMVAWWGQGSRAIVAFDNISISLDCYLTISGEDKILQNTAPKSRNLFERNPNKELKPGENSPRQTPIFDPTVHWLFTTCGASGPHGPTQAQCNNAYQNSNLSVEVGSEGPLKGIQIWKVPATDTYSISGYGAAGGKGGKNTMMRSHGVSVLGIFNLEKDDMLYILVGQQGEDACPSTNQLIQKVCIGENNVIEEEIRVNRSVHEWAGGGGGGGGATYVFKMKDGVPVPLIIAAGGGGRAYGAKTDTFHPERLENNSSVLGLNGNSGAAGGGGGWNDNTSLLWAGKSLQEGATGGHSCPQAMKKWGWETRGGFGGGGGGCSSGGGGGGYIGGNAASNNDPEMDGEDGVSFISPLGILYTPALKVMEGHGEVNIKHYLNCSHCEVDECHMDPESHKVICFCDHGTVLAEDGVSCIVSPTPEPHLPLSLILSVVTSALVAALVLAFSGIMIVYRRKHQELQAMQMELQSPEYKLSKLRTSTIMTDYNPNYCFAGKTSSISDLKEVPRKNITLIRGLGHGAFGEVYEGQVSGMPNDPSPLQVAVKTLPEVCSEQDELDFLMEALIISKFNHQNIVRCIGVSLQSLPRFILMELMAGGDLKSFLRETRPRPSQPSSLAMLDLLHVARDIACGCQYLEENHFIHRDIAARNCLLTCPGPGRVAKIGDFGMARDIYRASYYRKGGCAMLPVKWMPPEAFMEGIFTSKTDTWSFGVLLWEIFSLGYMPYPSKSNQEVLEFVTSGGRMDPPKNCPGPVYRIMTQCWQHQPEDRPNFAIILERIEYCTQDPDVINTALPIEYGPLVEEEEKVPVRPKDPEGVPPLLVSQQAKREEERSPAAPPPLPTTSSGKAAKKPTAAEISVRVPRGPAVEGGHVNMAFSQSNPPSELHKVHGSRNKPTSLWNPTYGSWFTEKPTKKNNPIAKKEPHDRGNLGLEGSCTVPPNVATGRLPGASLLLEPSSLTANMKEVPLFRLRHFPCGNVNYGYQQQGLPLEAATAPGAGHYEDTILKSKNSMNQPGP

[10] = biological target: Tyrosine-protein kinase BTK (Homo sapiens) (UniProt Q06187)
Chain of Tyrosine-protein kinase BTK (Homo sapiens) (Q06187 whole entry): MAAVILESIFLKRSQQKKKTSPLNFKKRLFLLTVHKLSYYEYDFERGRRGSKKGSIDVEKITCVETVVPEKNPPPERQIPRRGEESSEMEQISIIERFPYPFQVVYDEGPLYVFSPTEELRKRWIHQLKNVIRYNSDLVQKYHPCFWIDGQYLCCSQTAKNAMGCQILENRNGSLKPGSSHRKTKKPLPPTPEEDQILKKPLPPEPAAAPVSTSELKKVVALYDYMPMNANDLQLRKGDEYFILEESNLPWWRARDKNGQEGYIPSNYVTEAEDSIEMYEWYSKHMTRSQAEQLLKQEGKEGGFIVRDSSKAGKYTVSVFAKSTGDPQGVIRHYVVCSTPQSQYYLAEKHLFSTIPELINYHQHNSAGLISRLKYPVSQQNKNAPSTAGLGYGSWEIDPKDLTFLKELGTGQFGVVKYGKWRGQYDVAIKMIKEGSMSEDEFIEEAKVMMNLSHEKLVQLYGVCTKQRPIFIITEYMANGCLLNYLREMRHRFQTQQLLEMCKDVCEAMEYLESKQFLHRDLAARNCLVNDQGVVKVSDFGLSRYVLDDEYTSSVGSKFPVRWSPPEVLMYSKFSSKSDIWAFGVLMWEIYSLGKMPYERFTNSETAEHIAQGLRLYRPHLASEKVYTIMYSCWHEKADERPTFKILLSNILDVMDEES

Measured: residual activity

CN(C)C(=O)Cn1cc(-c2nc(C3(c4ccc(-c5cnc(N)nc5)cc4)CC3)no2)cn1 [BI 0153]
inactive: [1] 91% | [2] 100% | [3] 77% | [4] 68% | [5] 87% | [6] 100% | [7] 100% | [8] 99% | [9] 92% | [10] 82%

CN(C)C(=O)Cn1cc(-c2nc([C@@](C)(c3ccc(-c4cnc(N)nc4)cc3)C3CC3)no2)cn1 [BI 665915]
inactive: [1] 99% | [2] 81% | [3] 73% | [4] 86% | [5] 83% | [6] 89% | [7] 100% | [8] 100% | [9] 90% | [10] 73%
